Results: US20180042983A1, “THERAPEUTIC COMPOSITIONS INCLUDING MITOCHONDRIAL FISSION INHIBITOR PEPTIDES, VARIANTS THEREOF, AND METHODS OF USING THE SAME” (STEALTH PEPTIDES INTERNATIONAL, INC., priority 2015, published 2018)

How the values were obtained:
neonatal cardiomyocytes = test: Ang II-induced mitochondrial ROS in neonatal cardiomyocytes (Mitosox flow cytometry); assay type: cell-based, mouse; details: after Ang II (1 μM, 3 hours)
Procedure: Ventricles from mouse neonates younger than 72 hours will be dissected, minced, and enzymatically digested with Blendzyme 4 (45 mg/mL, Roche). After enzymatic digestion, cardiomyocytes will be enriched using differential pre-plating for 2 hours, and seeded on fibronectin-coated culture dishes for 24 hours in DMEM (Gibco) with 20% Fetal Bovine Serum (Sigma) and 25 μM Arabinosylcytosine (Sigma). Cardiomyocytes will be stimulated with Angiotensin II (1 μM) for 3 hours in serum-free DMEM containing 0.5% insulin transferrin-selenium (Sigma), 2 mM glutamine, and 1 mg/mL BSA. […] To measure mitochondrial superoxide concentration, Mitosox ([…]) will be incubated for 30 minutes at 37° C. to load cardiomyocytes, followed by 2 washes with Hanks Balanced Salt Solution. Samples will be analyzed using excitation/emission of 488/625 nm by flow cytometry. Flow data will be analyzed using FCS Express (De Novo Software, Los Angeles, Calif., U.S.A.), and presented as histogram distributions of Mitosox fluorescence intensity.

[1] = tested on: several mammalian cell types; details: cited from earlier work

Row | Compound | mitochondrial ROS (Mitosox fluorescence) (neonatal cardiomyocytes) | penetration of the plasma membrane [1]
1 | CC(=O)N[C@@H](CS)C(=O)O [N-acetyl cysteine] | not show any effect | 
2 | 2′,6′-Dmt-D-Arg-Phe-Lys-NH2 |  | readily penetrates the plasma membrane of several mammalian cell types in an energy-independent manner
